Test results taken from patent publication US20200281834A1, “COMPOSITION FOR PROMOTING EXPRESSION OF AQUAPORIN 3, AND USE THEREOF” (SUNTORY HOLDINGS LIMITED, priority 2017, published 2020).
Several values for one entry are separate records, joined by “and”; a condition that tells them apart may be missing. Equal entries are not always repeated.

Tested on: aquaporin 3
Experiment: Expression level of aquaporin 3 in skin epithelial cells (real-time PCR, corrected for GAPDH)
Assay type: cell-based, Human
Details: NHEK, 24 hours
[1] = 30 μM, control (culture solution) = 1.0
[2] = 50 μM, control (culture solution) = 1.0

Protocol: As a control, 50% ethanol was prepared.
As a positive control, retinoic acid was prepared.
Human epidermal keratinocytes (NHEK (AD)) were precultured under conditions of 37° C. and 5% CO2 in a serum-free liquid medium for growing human epidermal keratinocyte (HuMedia-KG2 manufactured by Kurabo Industries, Ltd.) in a 21 cm^2 dish, and cultured until the cells became sub-confluent.
Next, each test sample was added to the culture solution. Each test sample was added to the culture solution in such a manner that the concentration of the wine in the culture solution was equivalent to 1/400 of the concentration of each original composition (wine).
After each test sample was added, the cells were cultured under conditions of 37° C. and 5% CO2 for 24 hours.
Instead of each test sample, 0.125 mL of 50% ethanol as a control was added to 5 mL of the culture solution.
Instead of each test sample, retinoic acid as a positive control was added to the culture solution in such a manner that the concentration of the retinoic acid in the culture solution was 2 μM.
After the compositions as the controls were added, the cells were cultured under conditions of 37° C. and 5% CO2 for 24 hours.
After the culture of skin epithelial cells in “(2) Culture of Skin Epithelial Cells”, RNA was extracted from the cultured cells with ISOGEN (manufactured by Nippon Gene Co., Ltd.).
From 1 μg of the resulting RNA, cDNA was synthesized with Superscript VILO Master Mix (manufactured by Invitrogen).
Thereafter, with primers (primers having nucleotide sequences of SEQ ID NOS: 1 and 2) shown in Table 4, real-time PCR was performed to detect expression of aquaporin 3 (Genbank Accession No. NM_004925).
For PCR, KOD SYBR qPCR Mix (manufactured by Toyobo Co., Ltd.) was used, and the reaction conditions were set such that thermal denaturation was carried out at 98° C. for 10 seconds, annealing was carried out at 60° C. for 10 seconds, and elongation reaction was carried out at 68° C. for 30 seconds.
The fluorescence intensity in the process of amplification was monitored with a quantitative PCR apparatus StepOnePlus (manufactured by Applied Biosystems) to determine the number of cycles taken until the fluorescence intensity became constant. From the number of cycles for aquaporin 3, the expression level was calculated through a standard method.
In parallel to detection of the expression level of aquaporin 3 by real-time PCR, the expression level of glyceraldehyde-3-phosphate dehydrogenase (GAPDH) (Genbank Accession No. NM_002046) which is a housekeeping gene was measured with primers (primers having nucleotide sequences of SEQ ID NOS: 3 and 4) shown in Table 4.
The expression level of aquaporin 3 in the cultured cells was corrected for the expression level of GAPDH, and the expression level relative against the expression level of aquaporin 3 in the control was calculated, where the expression level of aquaporin 3 in the control was defined as 1.0.
The expression level of aquaporin 3 in skin epithelial cells was measured in the same manner as in “Method for Evaluating Expression Level of Aquaporin 3” except that instead of each test sample, 0.0125 mL of each fraction was added to 5 mL of a culture solution.
Each compound was dissolved in a human epidermal keratinocyte growing serum-free liquid medium (HuMedia-KG2 manufactured by Kurabo Industries, Ltd.) to prepare a test sample.
The culture solution was used as a control.

Molecule	Relative gene expression level (average) of aquaporin 3 [1]	Relative gene expression level (average) of aquaporin 3 [2]	Relative gene expression level (average) of aquaporin 3 (2 μM, control (50% ethanol) = 1.0)	Relative gene expression level (average) of aquaporin 3 (2 μM, control (culture solution) = 1.0, listed as RA)
catechin	1.19	1.14		
Oc1cc(O)c2c(c1)O[C@H](c1ccc(O)c(O)c1)[C@H](O)C2 [EC, epicatechin]	1.15	1.21		
O=C(O[C@@H]1Cc2c(O)cc(O)cc2O[C@@H]1c1cc(O)c(O)c(O)c1)c1cc(O)c(O)c(O)c1 [EGCG, epigallocatechin gallate]	1.36	1.47		
Oc1cc(O)c2c(c1)O[C@H](c1ccc(O)c(O)c1)[C@H](O)[C@H]2c1c(O)cc(O)c2c1O[C@H](c1ccc(O)c(O)c1)[C@H](O)C2 [EC-EC, procyanidin B2]	0.98	0.99		
Oc1cc(O)c2c(c1)O[C@H](c1ccc(O)c(O)c1)[C@H](O)[C@H]2c1c(O)cc(O)c2c1O[C@H](c1ccc(O)c(O)c1)[C@@H](O)C2 [EC-C, Procyanidin B1]	1.14	1.20		
Oc1cc(O)c2c(c1)O[C@H](c1ccc(O)c(O)c1)[C@@H](O)[C@@H]2c1c(O)cc(O)c2c1O[C@H](c1ccc(O)c(O)c1)[C@H](O)C2 [C-EC, procyanidin B4]	1.24	1.12		
CC1=C(/C=C/C(C)=C/C=C/C(C)=C/C(=O)O)C(C)(C)CCC1 [Retinoic acid, retinoic acid]			1.61	1.32 and 1.36 and 1.21
O=C(O[C@@H]1Cc2c(O)cc(O)cc2O[C@@H]1c1ccc(O)c(O)c1)c1cc(O)c(O)c(O)c1 [ECG, epicatechin gallate]	1.63	1.25		
(+)-catechin-(+)-catechin-(−)-epicatechin-3-O-gallate [C-C-ECG]	2.01	2.50		
O=C(O[C@@H]1Cc2c(O)cc(O)c([C@@H]3c4c(O)cc(O)cc4O[C@H](c4ccc(O)c(O)c4)[C@H]3O)c2O[C@@H]1c1ccc(O)c(O)c1)c1cc(O)c(O)c(O)c1 [C-ECG, (+)-catechin-(−)epicatechin-3-O-gallate]	2.19	2.59		
Oc1cc(O)c2c(c1)O[C@H](c1ccc(O)c(O)c1)[C@H](O)[C@H]2c1c(O)cc(O)c2c1O[C@H](c1ccc(O)c(O)c1)[C@H](O)[C@H]2c1c(O)cc(O)c2c1O[C@H](c1ccc(O)c(O)c1)[C@H](O)C2 [PC1, procyanidin C1]	1.41	1.34		
Oc1cc(O)c2c(c1)O[C@H](c1ccc(O)c(O)c1)[C@@H](O)[C@@H]2c1c(O)cc(O)c2c1O[C@H](c1ccc(O)c(O)c1)[C@@H](O)C2 [C-C, Procyanidin B3]	1.19	1.27		
